From paper PMC5890784, “Total chemical synthesis of glycocin F and analogues: S-glycosylation confers improved antimicrobial activity” (Chemical Science, 2018) come the findings set out here.

Bridges are numbered along the chain shown (N, C = ends). The star is where a group is joined. βGlcNAc = CC(=O)N[C@@H]1[C@@H](O)[C@H](O)[C@@H](CO)O[C@H]1*

As usually defined, the IC50 is the point on the concentration scale where inhibition reaches its midpoint. Read a low IC50 as greater potency.

The subject of this experiment is Lactobacillus plantarum ATCC 8014. Type of experiment: cell-based. Conditions: for IC50: liquid culture in MRS broth, 96-well plate, triplicate, start OD 0.05, 30 °C, 12-15 h, absorbance 600 nm, error = maximum variance across triplicates. As for the experimental part:
To evaluate the antibacterial activity of synthetic glycocin F (1b), [^27D-His]-GccF (1a) and glyco-mutants 10 and 11, the IC50 values against Lactobacillus plantarum ATCC 8014 were measured using a liquid culture assay. Synthetic GccF (1b) was used as the positive control (Table 1).
The glycopeptides were assayed for activity against Lactobacillus plantarum strain 8014, using a 96-well plate reader. Serial dilutions of the compound to be tested were prepared in MRS broth (Merck) and was added, in triplicate, to a 96-well plate containing an equal volume of L. plantarum 8014 at optical density 0.05. Additional positive controls (cells with no treatment) and negative controls (MRS media with no cells) were included, also in triplicate. Cells were grown in a Multiskan GO plate reader (Thermo Scientific) for 12-15 h, at 30 °C, and absorbance measured at 600 nm every 15 min. The growth of cells in each peptide concentration was modelled against the internal positive control, and the percentage inhibition derived at each time point as the difference between the optical density of the positive control and the optical density of cells within a given peptide concentration. Taking the maximum point from plots of percentage inhibition versus time for each peptide concentration allowed a polynom ial fit to be applied, and the concentration required to reach 50% inhibition derived.
Statistical error was taken as the maximum variance across the triplicates of each concentration in a […]
Figure 44. Th e results from testin g the bacterially-isola ted GccF, synthetic GccF (1b) and analo gues 1a, 10, and 11, plott ed as perc entage in hibit ion of Lact oba cillus plantarum ATCC 8014 gro wth vs concentra tion of the […]
(1 picture or pasted object on this page, not shown here)

[1] abbreviates: from IC50 values, relative to IC50 1.13 nM.

For the substance “H-KPAWCWYTLAMCGAGYDS(βGlcNAc)GTCDYMYSHCFGIKHHSSGSSSYHS(βGlcNAc)-OH (disulfide 5-28, 12-21) [Compound 10]”, the “decrease in activity compared to native glycocin F (fold)” value under setting [1] is “approximately 10 fold”.

For the substance “H-KPAWCWYTLAMCGAGYDC(βGlcNAc)GTCDYMYSHCFGIKHHSSGSSSYHC(βGlcNAc)-OH (disulfide 5-28, 12-21) [Compound 11]”, the “increase in activity relative to the native glycopeptide (fold)” value under setting [1] is given as “approximately 2 fold”.

“H-KPAWCWYTLAMCGAGYDS(βGlcNAc)GTCDYMYSHCFGIKHHSSGSSSYHC(βGlcNAc)-OH (disulfide 5-28, 12-21) [Native, glycocin F]”: the IC50 came out at 2 ± 0.2 nM.

Take “H-KPAWCWYTLAMCGAGYDS(βGlcNAc)GTCDYMYSHCFGIKHHSSGSSSYHC(βGlcNAc)-OH (disulfide 5-28, 12-21) [Compound 1b, glycocin F]”: inhibition was half-maximal at 1.13 ± 0.2 nM (IC50).
